Measurements published in ChEMBL document CHEMBL1268824, “Synthesis and SAR studies of 1,4-benzoxazine MenB inhibitors: novel antibacterial agents against Mycobacterium tuberculosis” (Bioorg Med Chem Lett, 2010).
Converted amounts (≈) assume the structure as drawn. The source made the active and inactive calls. The rule behind the calls is not given here.

Tests used:
[1] = molecular target: T1, 1,4-dihydroxy-2-naphthoyl-CoA synthase (Mycobacterium tuberculosis, UniProt P9WNP5); test: Inhibition of Mycobacterium tuberculosis MenB expressed in Escherichia coli BL21 (DE3) by double-reciprocal plot analysis
T1 sequence (P9WNP5 whole entry): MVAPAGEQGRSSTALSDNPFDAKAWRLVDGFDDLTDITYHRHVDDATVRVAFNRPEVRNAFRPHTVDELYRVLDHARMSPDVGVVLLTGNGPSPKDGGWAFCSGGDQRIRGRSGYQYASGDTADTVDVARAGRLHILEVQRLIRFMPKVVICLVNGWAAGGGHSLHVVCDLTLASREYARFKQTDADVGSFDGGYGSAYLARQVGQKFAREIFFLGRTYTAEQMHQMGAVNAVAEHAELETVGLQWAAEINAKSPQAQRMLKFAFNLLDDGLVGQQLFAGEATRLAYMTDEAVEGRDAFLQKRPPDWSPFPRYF

[2] = test system: Mycobacterium tuberculosis; test: Antibacterial activity against Mycobacterium tuberculosis H37Rv after 5 to 7 days by alamar blue assay; assay type: functional
Escherichia coli [3] = test: Inhibition of Escherichia coli MenE expressed in Escherichia coli BL21 (DE3) at 50 uM by double-reciprocal plot analysis
[4] = molecular target: T2, 1,4-dihydroxy-2-naphthoyl-CoA synthase (Mycobacterium tuberculosis) (UniProt P9WNP5); test: Inhibition of Mycobacterium tuberculosis MenB expressed in Escherichia coli BL21 (DE3) at 125 ug/ml by double-reciprocal plot analysis
T2 sequence (whole entry): T1 sequence (P9WNP5 whole entry)

Staphylococcus aureus = test: Antibacterial activity against Staphylococcus aureus P209 assessed as bacterial growth inhibition; assay type: functional, organism-based
[5] = molecular target: T2, 1,4-dihydroxy-2-naphthoyl-CoA synthase (Mycobacterium tuberculosis); test: Inhibition of Mycobacterium tuberculosis MenB expressed in Escherichia coli BL21 (DE3) up to 100 uM by double-reciprocal plot analysis
Escherichia coli [6] = test: Antibacterial activity against Escherichia coli M17 assessed as bacterial growth inhibition; assay type: functional, organism-based
[7] = molecular target: T1, 1,4-dihydroxy-2-naphthoyl-CoA synthase; test: Non-competitive inhibition of Mycobacterium tuberculosis MenB expressed in Escherichia coli BL21 (DE3)
[8] = molecular target: T1, 1,4-dihydroxy-2-naphthoyl-CoA synthase; test: Non-competitive inhibition of Mycobacterium tuberculosis MenB expressed in Escherichia coli BL21 (DE3) assessed as inhibition of enzyme-substrate complex formation
Mycobacterium avium = test: Antibacterial activity against Mycobacterium avium; assay type: functional

For `COC(=O)/C=C1\Nc2ccc(C)cc2OC1=O`, the IC50 [1] was 18.2 µM and the MIC [2] was 100 µg/mL (≈ 429 µM).
`COC(=O)/C=C1\Nc2cc(C)ccc2OC1=O` gave an IC50 [1] of 23.1 µM and an MIC [2] greater than 100 µg/mL.
For `COC(=O)/C=C1\Nc2ccc(Cl)cc2OC1=O`, the IC50 [1] was 35.7 µM and the MIC [2] was 0.63 µg/mL (≈ 2.48 µM).
`Cc1ccc2c(c1)N/C(=C\C(=O)CC(C)C)C(=O)O2` was tested, and the inhibition (Escherichia coli [3]) was “inactive” and the inhibition [4] was 77.3%.
For `O=C1Oc2ccccc2N/C1=C\C(=O)c1ccccc1Cl`, the “growth inhibition (GI)” value (Staphylococcus aureus) was “Active”, the MIC [2] was 3.13 µg/mL (≈ 10.4 µM) and the inhibition [5] was “inactive”. For the same compound, the “growth inhibition (GI)” value (Escherichia coli [6]) was “Active”.
With `Cc1ccc2c(c1)OC(=O)/C(=C/C(=O)c1ccccc1Cl)N2` the “growth inhibition (GI)” value (Staphylococcus aureus) was “Active”, the MIC [2] was greater than 100 µg/mL and the inhibition [5] was “inactive”. The “growth inhibition (GI)” value (Escherichia coli [6]) was “Active”.
Work on `COC(=O)/C=C1\Nc2cc(Cl)ccc2OC1=O` yielded an IC50 [1] of 46.3 µM, a Ki [7] of 22.5 µM and a Ki [8] of 18.5 µM. For the same compound, the MIC [2] was 5 µg/mL (≈ 19.7 µM).
For `COC(=O)/C=C1\Nc2ccc(F)cc2OC1=O`, the IC50 [1] was 30 µM and the MIC [2] was 0.63 µg/mL (≈ 2.66 µM).
With `CCS(=O)(=O)c1ccc2c(c1)N/C(=C\C(=O)C(C)(C)C)C(=O)O2` the inhibition (Escherichia coli [3]) was “inactive” and the inhibition [4] was 60.3%.
For `O=C1Oc2cc(Cl)ccc2N/C1=C\C(=O)c1ccccc1Cl`, the “growth inhibition (GI)” value (Staphylococcus aureus) was “Active”, the MIC [2] was 3.13 µg/mL (≈ 9.37 µM) and the inhibition [5] was “inactive”. The “growth inhibition (GI)” value (Escherichia coli [6]) was “Active”.
Work on `COC(=O)/C=C1\Nc2cc(F)ccc2OC1=O` yielded an IC50 [1] of 27 µM, a Ki [7] of 11.5 µM and a Ki [8] of 10.1 µM. For the same compound, the MIC [2] was 0.63 µg/mL (≈ 2.66 µM).
For `O=C1Oc2cc(F)ccc2N/C1=C\C(=O)c1ccccc1Cl`, the “growth inhibition (GI)” value (Staphylococcus aureus) was “Active”, the MIC [2] was 1.56 µg/mL (≈ 4.91 µM) and the inhibition [5] was “inactive”. For the same compound, the “growth inhibition (GI)” value (Escherichia coli [6]) was “Active”.
`O=C1Oc2ccc(F)cc2N/C1=C\C(=O)c1ccccc1Cl` was tested, and the “growth inhibition (GI)” value (Staphylococcus aureus) was “Active”, the MIC [2] was 3.13 µg/mL (≈ 9.85 µM) and the inhibition [5] was “inactive”. For the same compound, the “growth inhibition (GI)” value (Escherichia coli [6]) was “Active”.
`COC(=O)/C=C1\Nc2ccccc2OC1=O` showed an IC50 [1] of 10 µM, a Ki [7] of 9.1 µM and a Ki [8] of 67 µM. The MIC [2] was 0.64 µg/mL (≈ 2.92 µM).
With `O=C1Oc2ccc(Cl)cc2N/C1=C\C(=O)c1ccccc1Cl` the “growth inhibition (GI)” value (Staphylococcus aureus) was “Active”, the MIC [2] was 12.5 µg/mL (≈ 37.4 µM) and the inhibition [5] was “inactive”. For the same compound, the “growth inhibition (GI)” value (Escherichia coli [6]) was “Active”.
With `COC(=O)/C=C1\Nc2cc([N+](=O)[O-])ccc2OC1=O` the IC50 [1] was 28.2 µM and the MIC [2] was 50 µg/mL (≈ 189 µM).
In the case of `COC(=O)/C=C1\Nc2ccccc2SC1=O`, the IC50 [1] is reported as greater than 140 µM, the MIC [2] is reported as greater than 100 µg/mL and the Activity (Mycobacterium avium) is reported as greater than 64 µg/mL.
`COC(=O)/C=C1\Nc2ccc([N+](=O)[O-])cc2OC1=O` showed an IC50 [1] of 20.3 µM and an MIC [2] greater than 100 µg/mL.
With `COC(=O)/C=C1\Nc2ccccc2NC1=O` the IC50 [1] was greater than 122 µM, the MIC [2] was greater than 100 µg/mL and the Activity (Mycobacterium avium) was greater than 64 µg/mL.
`CC(C)CC(=O)/C=C1\Nc2cc(Cl)ccc2OC1=O` was tested, and the inhibition (Escherichia coli [3]) was “inactive” and the inhibition [4] was 98%.
Compound `COC(=O)/C=C1\Nc2c(C)cccc2OC1=O` has an IC50 [1] of 24.1 µM and an MIC [2] of 25 µg/mL (≈ 107 µM).
With `CC(C)(C)/C(O)=C/c1nc2ccccc2oc1=O` the inhibition (Escherichia coli [3]) was “inactive” and the inhibition [4] was 68.4%.
With `Cc1ccc2c(c1)N/C(=C\C(=O)c1ccccc1Cl)C(=O)O2` the “growth inhibition (GI)” value (Staphylococcus aureus) was “Active”, the MIC [2] was 100 µg/mL (≈ 319 µM) and the inhibition [5] was “inactive”. For the same compound, the “growth inhibition (GI)” value (Escherichia coli [6]) was “Active”.
With `CCS(=O)(=O)c1ccc2c(c1)N/C(=C\C(=O)OC)C(=O)O2` the IC50 [1] was 17.9 µM and the MIC [2] was greater than 100 µg/mL.
